Experiments:
[1] = tested on: monocyte CD163 expression; assay: CD163 expression on monocytes of PBMCs cultured with mediators, staining and flow cytometric analysis; format: cell-based, human; details: for increase of monocyte CD163 expression: PBMCs treated 24 hours, DEX 200 nM; for effect of cytokine alone on monocyte CD163 expression: at the concentrations tested
Method: To assess whether different cytokines could influence CD163 expression, freshly isolated PBMCs were cultured for 24 hours in the presence of various cytokines, 200 nM DEX (as a positive control for CD163 upregulation), or control media. The cells were then subjected to staining and flow cytometric analysis.
For cytokine treatment studies, isolated PBMCs were suspended in hepes buffered RPMI 1640/0.05% gentamicin/10% FBS at a concentration of 2.0×10^6 to 2.5×10^6 cells/ml and cultured in 96 well plates at 37° C. and 5% CO2 in the presence of various mediators (Table 1). Mononuclear cells were stained for flow cytometric analysis after 24 hours in culture unless otherwise indicated. This enhanced cell recovery because monocytes, which initially adhere to plastic vessels, transiently detach from culture wells at 24-48 hours.
All staining procedures were performed at 4 C. Briefly, cultured PBMCs were incubated with normal human IgG (6 mg/ml) to block Fc receptor-specific binding of mAbs and 30 μg/ml of the isotype control mAb P3 or a saturating amount of mAb MAC2-48 (20 μg/ml) for one hour. Cells were then washed and stained for one hour with 17.5 μg/ml FITC labeled goat F(ab=)2 anti-mouse Ig. The cells were again washed and fixed with 1% methanol free formalin.
Cell fluorescence of monocytes gated using forward and side scatter was analyzed using a Becton Dickenson FACScan (Franklin Lakes, N.J.). Mean fluorescence intensity (MFI) was calculated by subtracting the MFI of the P3 stained mononuclear cells from the MFI of the corresponding Mac2-48 stained cells.

[2] = tested on: CD163 expression on monocytes; assay: Monocytes cultured with LPS, DEX or IL-10, surface CD163 by immunofluorescence; format: cell-based, human; details: monocytes cultured with the agent alone
Method: In addition to testing the effects of cytokines in combination with glucocorticoids on levels of CD163, studies were performed to examine the effects of glucocorticoids in combination with lipopolysaccharide (LPS). […] However, when monocytes were cultured for 48 hours with DEX combined with LPS, their was a synergistic increase in CD163 expression, where the effect of DEX alone was increased by more than 2-fold when LPS treatment was added.

[3] = tested on: CD163 mRNA; assay: Northern blots of CD163 mRNA in treated monocytes; format: cell-based, human; details: monocytes treated 8 hours; 5 ng/ml IL-10 or 10^-8 M FP
Method: Monocytes were treated for 8 hours with either IL-10, the glucocorticoid FP or control media.
Human monocytes were isolated and cultured overnight as described for western blots. Monocytes were then stimulated for 8 hours with 5 ng/ml IL-10 (R&D Systems) or 10^-8 M FP. Total RNA was isolated from IL-10 stimulated, glucocorticoid stimulated and control monocytes as described by Dreier, et al. (Dreier, J. et al. 1998. DNA Cell Biol. 17:321-323). 10 μg of total RNA per sample were electrophoretically separated in a 1% agarose, 2% formaldehyde gel and transferred onto a Hybond N^+nylon membrane (Amersham Inc., Arlington Heights, Ill.) in 20x saline-sodium citrate (SSC) using an LKB 2016 VacuGene blotting apparatus. Antisense RNA probes for northern hybridization were generated from linearized DNA templates using a digoxigenin RNA labeling kit (Boehringer Mannheim, Mannheim, Germany) and T7 RNA polymerase (New England Biolabs, Schwalbach, Germany) as described by the manufacturer. Prehybridization was performed at 68° C. for 1 hr in a high SDS hybridization buffer (7% SDS, 5x SSC, 50% formamide, 50 mM sodium phosphate, 2% casein, 0.1% N-lauroylsarcosine, pH 7.0). Subsequently the heat-denatured probes (10 minutes at 95° C.) were added to the prehybridization solution (100 ng/ml) and hybridized at 68° C. for 16 hours. […]

[4] = tested on: monocyte surface CD163; assay: Shedding of monocyte surface CD163 in vitro; format: cell-based, human; details: cells pretreated with glucocorticoids plus LPS
Method: Therefore, like PMA, LPS is capable of inducing CD163 shedding. LPS-induced shedding occurred even with monocytes that had been cultured for 48 hours in DEX and thus had 5- to 10-fold higher levels of surface CD163 than freshly isolated monocytes. […] This LPS-conferred resistance to subsequent LPS-induced shedding of CD163 is similar to reported endotoxin pre-conditioning for resistance to subsequent inflammatory insults.

[5] = tested on: monocyte surface CD163; details: Droste et al. 1999; blocked by protease inhibitors; cited from earlier work
[6] = tested on: CD163 expression on monocytes; details: purified monocytes, 2 days; cited from earlier work

C[C@@H]1C[C@H]2[C@@H]3CCC4=CC(=O)C=C[C@]4(C)[C@@]3(F)[C@@H](O)C[C@]2(C)[C@@]1(O)C(=O)CO [DEX, reference compound]
increase of monocyte CD163 expression ([1]; p<0.01): ~7 fold
surface CD163 on monocytes, single agent [2]: increased expression of CD163

CCC(=O)O[C@]1(C(=O)SCF)[C@H](C)C[C@H]2[C@@H]3C[C@H](F)C4=CC(=O)C=C[C@]4(C)[C@@]3(F)[C@@H](O)C[C@@]21C [FP, reference compound]
CD163 mRNA levels [3]: increased from undetectable to strong bands

CCCCCCCCCCCCCC(=O)O[C@@H]1[C@@H](C)[C@@]2(O)[C@@H](C=C(CO)C[C@]3(O)C(=O)C(C)=C[C@@H]23)[C@@H]2C(C)(C)[C@]12OC(C)=O [PMA]
shedding of surface CD163 on subsequent treatment [4]: remained sensitive to PMA-induced shedding
shedding of surface CD163 from monocytes in culture [5]: induce rapid shedding of surface CD163

GM-CSF: granulocyte-macrophage colony stimulating factor
effect of cytokine plus DEX on CD163 expression over DEX treatment alone ([1]; PBMCs 24 hours): does not enhance CD163 expression over DEX treatment alone
effect of cytokine alone on CD163 expression [6]: neither GM-CSF nor IL-4 alone had any effect
effect of cytokine plus DEX on CD163 expression [6]: synergistic effect

IL-13: interleukin-13, a cytokine
effect of cytokine alone on monocyte CD163 expression ([1]; PBMCs 24 hours): did not upregulate CD163 expression

B1: IL-10: Interleukin-10 (originally known as cytokine synthesis inhibitory factor), a cytokine (protein, UniProt P22301 19-178, looked up)
Interleukin-10: SPGQGTQSENSCTHFPGNLPNMLRDLRDAFSRVKTFFQMKDQLDNLLLKESLLEDFKGYLGCQALSEMIQFYLEEVMPQAENQDPDIKAHVNSLGENLKTLRLRLRRCHRFLPCENKSKAVEQVKNAFNKLQEKGIYKAMSEFDIFINYIEAYMTMKIRN
increase of CD163 expression compared to control ([1]; PBMCs 24 hours, 10 and 100 ng/ml IL-10, p<0.01): approximately 3.5 fold
increase of monocyte CD163 expression ([1]; p<0.01): approximately 4 fold
CD163 mRNA levels [3]: increased from undetectable to strong bands
surface CD163 on monocytes, single agent [2]: increased expression of CD163

B2: IL-4: interleukin-4, a cytokine (protein, UniProt P05112 25-153, looked up)
Interleukin-4: HKCDITLQEIIKTLNSLTEQKTLCTELTVTDIFAASKNTTEKETFCRAATVLRQFYSHHEKDTRCLGATAQQFHRHKQLIRFLKRLDRNLWGLAGLNSCPVKEANQSTLENFLERLKTIMREKYSKCSS
effect of cytokine plus DEX on CD163 expression over DEX treatment alone ([1]; PBMCs 24 hours): does not enhance CD163 expression over DEX treatment alone
effect of cytokine alone on monocyte CD163 expression ([1]; PBMCs 24 hours): did not upregulate CD163 expression
effect of cytokine alone on CD163 expression [6]: neither GM-CSF nor IL-4 alone had any effect
effect of cytokine plus DEX on CD163 expression [6]: synergistic effect

Reference: patent US20010041177A1, “Methods for detecting inflammation and inflammatory conditions” (priority 2000, published 2001)
